Entries after “also recorded” stand apart in the source; their conditions may differ.
How the values were obtained:
[1] = Critical micelle concentration (CMC) using diphenylhexatriene (DPH) fluorescent stain; assay type: physicochemical; conditions: aqueous solution
Experimental: A method of measuring the CMC is not particularly limited, but the CMC may be measured using methods well known in the related art. For example, the CMC may be measured by a fluorescence staining method using diphenylhexatriene (DPH).
(§1) Specifically, the critical micelle concentration (CMC) was measured using diphenylhexatriene (DPH) as a fluorescent stain, and the hydrodynamic radii (Rh) of the micelles formed by each preparation (1.0% by weight) were measured through a dynamic light scattering (DLS) experiment.

[2] = Hydrodynamic radius and size distribution of micelles by dynamic light scattering (DLS); assay type: physicochemical; conditions: detergent 1.0% by weight
Experimental: A method of measuring the radius of the micelles is not particularly limited, but the radius of the micelles may be measured using methods well known in the related art. For example, the radius of the micelles may be measured through a dynamic light scattering (DLS) experiment.
as §1

[3] = molecular target: T1, human β2 adrenergic receptor (β2AR) (Homo sapiens, UniProt P07550); experiment: Structural stability of β2AR, [3H]-dihydroalprenolol ([3H]-DHA) binding; assay type: biochemical; conditions: BTMs without CHS, DDM with CHS; for initial ligand-binding characteristics of β2AR ([3H]-DHA): CMC+0.2% by weight
T1 construct: made in house
Experimental: An experiment for determining the structural stability of a human β2 adrenergic receptor (β2AR) and a G-protein-coupled receptor (GPCR) by BTMs was performed. That is, a receptor purified with DDM was diluted with a buffer solution containing only each of the BTMs without cholesteryl hemisuccinate (CHS) or a buffer solution containing DDM with CHS. The final compound concentration was CMC+0.2% by weight, and the ligand-binding characteristics of the receptor were determined through [^3H]-dihydroalprenolol ([^3H]-DHA) binding.
Specifically, a radioactive ligand binding test was performed using the following method. β2AR was purified with 0.1% DDM (D. M. Rosenbaum et al., Science, 2007, 318, 1266-1273.), and finally concentrated to approximately 10 mg/mL (approximately 200 μM). A master binding mixture containing 10 nM [^3H]-dihydroalprenolol (DHA) supplemented with 0.5 mg/mL BSA in each 0.2% amphiphilic compound (DDM or BTMs) was prepared using the β2AR purified with DDM. The ligand-binding characteristics of the receptor purified with the amphiphilic compound at 0.2 pmol was monitored at regular intervals while the receptor was incubated at room temperature for 3 days. The ligand-binding characteristics of the receptor were determined using a water-soluble radioactive ligand binding assay as will be described below. The receptor purified with DDM or each of the BTMs was incubated with 10 nM [^3H]-DHA at room temperature for 30 minutes. The mixture was loaded on a G-50 column, and flow-through fractions were collected using 1 mL of a binding buffer (20 mM HEPES (pH 7.5) supplemented with 0.5 mg/mL BSA and 20×CMC of each amphiphilic compound, 100 mM NaCl). Then, the G-50 column was filled with 15 mL of a scintillation fluid. Receptor-bound [^3H]-DHA was counted using a scintillation counter (Beckman). Non-specific binding of [^3H]-DHA was determined by adding 2 μM of alprenolol (Sigma) in the same binding reaction. The binding affinity of [^3H]-DHA was plotted on a column graph, and each experiment was performed in triplicate.

[4] = molecular target: T2, melibiose permease (MelB) (Salmonella typhimurium, UniProt P30878); experiment: MelB extraction and thermostability, SDS-PAGE and Western Blotting of the dissolved protein; conditions: 55° C., 90 minutes; detergent 1.5% by weight
T2 construct: made in house; host or cells: E. coli DW2
Experimental: The MelB protein was extracted from a membrane using BTM-C11s or DDM, and the amount and structure of the extracted protein were analyzed through SDS-PAGE and Western Blotting. A concentration of the amphiphilic compound used was 1.5% by weight, and the protein was extracted at four temperatures (0, 45, 55, and 65° C.), and incubated at the same temperature for 90 minutes. Thereafter, an amount of the protein remaining dissolved in an aqueous solution was measured to evaluate two types of performance: protein extraction efficiency and stabilization ability of the compound. The amount of the protein extracted and stabilized with each of the amphiphilic molecules is expressed as a relative value (%) of the entire amount of proteins contained in a membrane sample which is not treated with the amphiphilic molecules.
Specifically, Salmonella typhimurium melibiose permease (MelBSt) having a 10-His tag at the C-terminus thereof was expressed in E. coli DW2 cells (AmelB and AlacZY) using a plasmid pK95ΔAHB/WT MelBSt/CH10. Cell growth and membrane preparation were performed according to the method disclosed in the article by A. S. Ethayathulla et al. (Nat. Commun. 2014, 5, 3009). A protein assay was performed using a Micro BCA kit (Thermo Scientific, Rockford, Ill.). An effect of the isomers (A-BTM-C11, B-BTM-C11, and M-BTM-C11) of the BTM-C11s or DDM on the MelBSt stability was evaluated using the protocol disclosed in P. S. Chae et al. (Nat. Methods 2010, 7, 1003-1008). A membrane sample (having a final protein concentration of 10 mg/mL) containing MelBSt was incubated at four temperatures (0, 45, 55, and 65° C.) for 90 minutes in a solubilizing buffer (20 mM sodium phosphate, pH 7.5, 200 mM NaCl, 10% glycerol, and 20 mM melibiose) containing 1.5% (w/v) DDM or the BTM-C11 isomers. To remove insoluble matter, the sample was ultracentrifuged at 355,590 g at 4° C. for 45 minutes using a Beckman Optima™ MAX ultracentrifuge equipped with a TLA-100 rotor. The dissolved fraction was separated by 16% SDS-PAGE, and then immunoblotted with a Penta-His-HRP antibody (Qiagen, Germantown, Md.). The membrane fraction containing 20 μg of untreated proteins was used to represent the entire MelB, and the treated samples were loaded in each well at the same volume. MelBSt was measured by an ImageQuant LAS 4000 Biomolecular imager (GE Health Care Life Sciences) using a SuperSignal West Pico chemiluminescent substrate.

[5] = test system: uric acid-xanthine/H+ symporter (UapA), UapAG411VΔ1-11 GFP fusion; experiment: Thermal stability of UapA solubilized by detergent, fluorescence size exclusion chromatography (FSEC); parameters: species or system Aspergillus nidulans; conditions: detergent 1.0% by weight; 40° C. for 10 minutes
Experimental: A UapA protein is a uric acid-xanthine/H^+ symporter in Aspergillus nidulans. An experiment for measuring structural stability of a uric acid-xanthine/H^+ symporter (UapA) by BTMs in an aqueous solution was performed. The structural stability of UapA was measured using fluorescence size exclusion chromatography (FSEC).
Specifically, UapAG411VΔ1-11 (hereinafter referred to as ‘UapA’) was expressed as a GFP fusion protein in a Saccharomyces cerevisiae FGY217 strain, and divided into a sample buffer (20 mM Tris (pH 7.5), 150 mM NaCl, 0.03% DDM, and 0.6 mM xanthine). This procedure was performed according to the method disclosed in the article by J. Leung et al. (Mol. Membr. Biol. 2013, 30, 32-42). Membranes containing UapA were re-suspended in PBS (10 mM imidazole pH 8.0, 150 mM NaCl, and 10% glycerol), and a concentration of proteins was measured. […] 100 μL aliquots were removed from the respective tubes, and fluorescence reading on each sample was performed before and after the aliquots were ultracentrifuged at 150,000 g for 10 minutes to remove insoluble matter. Water-soluble fractions remaining under each condition were subjected to fluorescence SEC (FSEC) using a Superose 6 column (GE Healthcare) equilibrated with a buffer containing a proper preparation (DDM or BTM).

T1 sequence (P07550 whole entry): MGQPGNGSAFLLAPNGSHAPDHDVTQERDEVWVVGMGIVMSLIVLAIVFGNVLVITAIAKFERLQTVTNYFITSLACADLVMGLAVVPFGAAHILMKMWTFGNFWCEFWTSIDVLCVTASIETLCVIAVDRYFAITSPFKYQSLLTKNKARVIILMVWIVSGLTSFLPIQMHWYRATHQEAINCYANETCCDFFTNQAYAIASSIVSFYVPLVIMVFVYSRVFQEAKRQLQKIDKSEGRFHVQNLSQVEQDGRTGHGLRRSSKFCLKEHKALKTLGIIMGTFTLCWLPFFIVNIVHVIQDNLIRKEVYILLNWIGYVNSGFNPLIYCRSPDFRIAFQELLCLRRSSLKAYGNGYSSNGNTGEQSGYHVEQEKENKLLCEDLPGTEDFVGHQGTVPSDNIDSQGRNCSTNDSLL
T2 sequence (P30878 whole entry): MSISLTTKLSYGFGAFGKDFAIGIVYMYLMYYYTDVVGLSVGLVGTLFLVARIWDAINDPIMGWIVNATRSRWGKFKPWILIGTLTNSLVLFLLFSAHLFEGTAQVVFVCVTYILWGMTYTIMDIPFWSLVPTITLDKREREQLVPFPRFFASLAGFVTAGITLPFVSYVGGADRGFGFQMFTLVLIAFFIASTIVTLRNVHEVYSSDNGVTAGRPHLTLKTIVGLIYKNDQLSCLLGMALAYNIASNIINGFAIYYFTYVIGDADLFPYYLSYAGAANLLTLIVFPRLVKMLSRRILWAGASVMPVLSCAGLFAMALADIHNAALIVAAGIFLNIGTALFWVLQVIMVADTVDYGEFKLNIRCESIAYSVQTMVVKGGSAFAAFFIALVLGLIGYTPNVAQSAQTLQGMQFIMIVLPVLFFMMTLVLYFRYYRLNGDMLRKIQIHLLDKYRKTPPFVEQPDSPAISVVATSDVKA

Compound | CMC [1] | CMC (% by weight) [1] | Rh (nm), hydrodynamic radius of micelles [2] | initial ligand-binding characteristics of β2AR ([3H]-DHA) [3] | amount of MelB protein remaining dissolved in aqueous solution [4] | UapA monodisperse peak in FSEC (extraction and structural stability) [5] | remaining ligand-binding ability of β2AR, % of initial ([3]; after 3 days of incubation at room temperature) | effect on the long-term stability of the receptor (β2AR) ([3]; room temperature, 3 days)
CCCCCCCCCOC[C@H](O[C@@H]1OC(CO)[C@@H](O[C@H]2OC(CO)[C@@H](O)C(O)C2O)C(O)C1O)[C@H](COCCCCCCCCC)O[C@@H]1OC(CO)[C@@H](O[C@H]2OC(CO)[C@@H](O)C(O)C2O)C(O)C1O (stereo partly drawn) [A-BTM-C9] | ~0.021 mM | ~0.0022 % by weight | 2.9 ± 0.04 nm |  |  |  |  | 
CCCCCCCCCCOC[C@H](O[C@@H]1OC(CO)[C@@H](O[C@H]2OC(CO)[C@@H](O)C(O)C2O)C(O)C1O)[C@H](COCCCCCCCCCC)O[C@@H]1OC(CO)[C@@H](O[C@H]2OC(CO)[C@@H](O)C(O)C2O)C(O)C1O (stereo partly drawn) [A-BTM-C10] | ~0.011 mM | ~0.0012 % by weight | 3.2 ± 0.07 nm |  |  |  |  | 
CCCCCCCCCCCOC[C@H](O[C@@H]1OC(CO)[C@@H](O[C@H]2OC(CO)[C@@H](O)C(O)C2O)C(O)C1O)[C@H](COCCCCCCCCCCC)O[C@@H]1OC(CO)[C@@H](O[C@H]2OC(CO)[C@@H](O)C(O)C2O)C(O)C1O (stereo partly drawn) [A-BTM-C11] | ~0.007 mM | ~0.0008 % by weight | 3.5 ± 0.03 nm | slight decrease in the ligand-binding characteristics |  |  |  | 
CCCCCCCCCCOC[C@@H](O[C@@H]1OC(CO)[C@@H](O[C@H]2OC(CO)[C@@H](O)C(O)C2O)C(O)C1O)[C@@H](COCCCCCCCCCC)O[C@@H]1OC(CO)[C@@H](O[C@H]2OC(CO)[C@@H](O)C(O)C2O)C(O)C1O (stereo partly drawn) [B-BTM-C10] | ~0.013 mM | ~0.0014 % by weight | 3.1 ± 0.07 nm |  |  |  |  | 
CCCCCCCCCCCOC[C@@H](O[C@@H]1OC(CO)[C@@H](O[C@H]2OC(CO)[C@@H](O)C(O)C2O)C(O)C1O)[C@@H](COCCCCCCCCCCC)O[C@@H]1OC(CO)[C@@H](O[C@H]2OC(CO)[C@@H](O)C(O)C2O)C(O)C1O (stereo partly drawn) [B-BTM-C11] | ~0.008 mM | ~0.0009 % by weight | 3.5 ± 0.08 nm |  |  |  |  | 
CCCCCCCCCOC[C@H](O[C@@H]1OC(CO)[C@@H](O[C@H]2OC(CO)[C@@H](O)C(O)C2O)C(O)C1O)[C@@H](COCCCCCCCCC)O[C@@H]1OC(CO)[C@@H](O[C@H]2OC(CO)[C@@H](O)C(O)C2O)C(O)C1O (stereo partly drawn) [M-BTM-C9] | ~0.017 mM | ~0.0017 % by weight | 3.2 ± 0.05 nm |  |  |  |  | 
CCCCCCCCCCOC[C@H](O[C@@H]1OC(CO)[C@@H](O[C@H]2OC(CO)[C@@H](O)C(O)C2O)C(O)C1O)[C@@H](COCCCCCCCCCC)O[C@@H]1OC(CO)[C@@H](O[C@H]2OC(CO)[C@@H](O)C(O)C2O)C(O)C1O (stereo partly drawn) [M-BTM-C10] | ~0.008 mM | ~0.0009 % by weight | 3.5 ± 0.07 nm |  |  |  |  | 
CCCCCCCCCCCOC[C@H](O[C@@H]1OC(CO)[C@@H](O[C@H]2OC(CO)[C@@H](O)C(O)C2O)C(O)C1O)[C@@H](COCCCCCCCCCCC)O[C@@H]1OC(CO)[C@@H](O[C@H]2OC(CO)[C@@H](O)C(O)C2O)C(O)C1O (stereo partly drawn) [M-BTM-C11] | ~0.006 mM | ~0.0006 % by weight | 4.7 ± 0.27 nm | slight decrease in the ligand-binding characteristics | complete solubility | significant increase in the recovery of monodisperse peaks; also recorded: most excellent effect | approximately 70% | much more superior effect in maintaining the long-term stability of β2AR, compared to DDM
